Results reported in US20240398771A1, “TREATMENT OF SCLERODERMA AND RAYNAUD'S SYNDROME” (Aisa Pharma, Inc., priority 2023, published 2024).

Test system: participants with SSc-RP
Experiment: Average duration of weekly RP attacks, all attacks (minutes)
Type: in vivo, human
Text: The relevant metrics measured by this tool daily are: • Study medication • SSc-RP symptoms (Reporting an attack including duration of attack) • Severity of the attack considering all symptoms of the attack e.g. tingling, numbness, pain, color changes (VAS 0-10 cm scale) • Participant's location at the time of the attack (inside home/outside home) • Selecting symptoms experienced during the attack (tingling, numbness, pain, color changes, other) • Pain rating during the attack (11-point Likert scale) • The RCS based on how much difficulty participants had with Raynaud's today, how many attacks the participant had, and how long they lasted. Participants will also be asked to consider how much pain, numbness, or other symptoms the Raynaud's caused in fingers (including painful sores), and how much the Raynaud's alone affected the use of hands today (VAS 0-10 cm scale).
The absolute change in average duration of weekly RP attacks from baseline to the end of each dosing period was and will be a secondary outcome variable. The sponsor-developed participant-informed diary was and will be used to record data. Average duration of weekly RP attacks is defined as the total duration of RP attacks divided by total number of RP attacks within the last 7 days of each dosing period. Total duration of RP attacks during the last 7 days of screening period divided by the total number of RP attacks will be used as baseline for the analysis of all periods. The variable will be calculated similar to frequency data as before.

[1] = Excluding Outliers, ITT Population - Part A (Table B-6), last 7 days of screening period, listed as Pooled Cilnidipine
[2] = ITT Population - Part A (Table B-5), last 7 days of dosing period, listed as Cilnidipine 10 mg
[3] = ITT Population - Part A (Table B-5), last 7 days of dosing period, listed as Cilnidipine 20 mg
[4] = ITT Population - Part A (Table B-5), last 7 days of dosing period, listed as Pooled Cilnidipine
[5] = ITT Population - Part A (Table B-5), last 7 days of screening period, listed as Cilnidipine 10 mg
[6] = ITT Population - Part A (Table B-5), last 7 days of screening period, listed as Cilnidipine 20 mg
[7] = ITT Population - Part A (Table B-5), last 7 days of screening period, listed as Pooled Cilnidipine

COCCOC(=O)C1=C(C)NC(C)=C(C(=O)OC/C=C/c2ccccc2)C1c1cccc([N+](=O)[O-])c1 (centres unmarked) [Cilnidipine, 1,4-dihydro-2,6-dimethyl,4-(3-nitrophenyl)-3,5-pyridinedicarboxylic acid 2-methoxyethyl (2 E)-3-phenyl-2-propenyl ester]
Average duration of weekly RP attacks (All Attacks), Baseline, Q3 (Excluding Outliers, ITT Population - Part A (Table B-6), last 7 days of screening period, listed as Cilnidipine 20 mg): 25.00 min | Average duration of weekly RP attacks (All Attacks), Baseline [1]: 10.6 min | Average duration of weekly RP attacks (All Attacks), Baseline, Max [1]: 40.0 min | Average duration of weekly RP attacks (All Attacks), Baseline, Mean [1]: 25.21 min | Average duration of weekly RP attacks (All Attacks), Baseline, Median [1]: 25.00 min | Average duration of weekly RP attacks (All Attacks), Baseline, Q1 [1]: 10.63 min | Average duration of weekly RP attacks (All Attacks), Baseline, Q3 [1]: 40.00 min | Average Duration of weekly RP attacks (All Attacks), Max [2]: 31.5, 31.5 minutes | Average Duration of weekly RP attacks (All Attacks), Min [2]: 31.5, 31.5 minutes | Average duration of weekly RP attacks (All Attacks), Change from Baseline, Max [2]: −8.5, −8.5 minutes | Average duration of weekly RP attacks (All Attacks), Change from Baseline, Min [2]: −8.5, −8.5 minutes | Average Duration of weekly RP attacks (All Attacks) [3]: 3.0 min | Average Duration of weekly RP attacks (All Attacks), Max [3]: 30.5 min | Average Duration of weekly RP attacks (All Attacks), Q1 [3]: 3.00 min | Average duration of weekly RP attacks (All Attacks), Change from Baseline [3]: -7.6 min | Average duration of weekly RP attacks (All Attacks), Change from Baseline, Max [3]: 5.5 min | Average duration of weekly RP attacks (All Attacks), Change from Baseline, Q3 [3]: 5.45 min | Average duration of weekly RP attacks (All Attacks), Percent Change from Baseline, Max [3]: 21.8% | Average duration of weekly RP attacks (All Attacks), Percent Change from Baseline, Min [3]: −71.8% | Average duration of weekly RP attacks (All Attacks), Percent Change from Baseline, Q1 [3]: −71.76% | Average duration of weekly RP attacks (All Attacks), Percent Change from Baseline, Q3 [3]: 21.82% | Average Duration of weekly RP attacks (All Attacks) [4]: 3.0 min | Average Duration of weekly RP attacks (All Attacks), Max [4]: 31.5 min | Average Duration of weekly RP attacks (All Attacks), Q1 [4]: 3.00 min | Average duration of weekly RP attacks (All Attacks), Change from Baseline [4]: -8.5 min | Average duration of weekly RP attacks (All Attacks), Change from Baseline, Max [4]: 5.5 min | Average duration of weekly RP attacks (All Attacks), Change from Baseline, Median [4]: -7.63 min | Average duration of weekly RP attacks (All Attacks), Change from Baseline, Q1 [4]: -8.48 min | Average duration of weekly RP attacks (All Attacks), Change from Baseline, Q3 [4]: 5.45 min | Average duration of weekly RP attacks (All Attacks), Percent Change from Baseline, Max [4]: 21.8% | Average duration of weekly RP attacks (All Attacks), Percent Change from Baseline, Min [4]: −71.8% | Average duration of weekly RP attacks (All Attacks), Percent Change from Baseline, Q1 [4]: −71.76% | Average duration of weekly RP attacks (All Attacks), Percent Change from Baseline, Q3 [4]: 21.82% | Average duration of weekly RP attacks (All Attacks), Baseline, Max [5]: 40.0, 40.0 minutes | Average duration of weekly RP attacks (All Attacks), Baseline, Min [5]: 40.0, 40.0 minutes | Average duration of weekly RP attacks (All Attacks), Baseline, Q1 [5]: 40.00, 40.00 minutes | Average duration of weekly RP attacks (All Attacks), Baseline, Q3 [5]: 40.00, 40.00 minutes | Average duration of weekly RP attacks (All Attacks), Baseline [6]: 10.6 min | Average duration of weekly RP attacks (All Attacks), Baseline, Max [6]: 25.0 min | Average duration of weekly RP attacks (All Attacks), Baseline, Q1 [6]: 10.63 min | Average duration of weekly RP attacks (All Attacks), Baseline, Q3 [6]: 25.00 min | Average duration of weekly RP attacks (All Attacks), Baseline [7]: 10.6 min | Average duration of weekly RP attacks (All Attacks), Baseline, Max [7]: 40.0 min | Average duration of weekly RP attacks (All Attacks), Baseline, Mean [7]: 25.21 min | Average duration of weekly RP attacks (All Attacks), Baseline, Median [7]: 25.00 min | Average duration of weekly RP attacks (All Attacks), Baseline, Q1 [7]: 10.63 min | Average duration of weekly RP attacks (All Attacks), Baseline, Q3 [7]: 40.00 min
